Data on 15 molecules can be found in US20260055051A1, “Compound with anti-tumor activity, preparation method therefor, and use thereof” (Ocean University of China, priority 2022, published 2026).

What all share (assay type): cell-based
Assay [1] relates to human colon cancer cell line HCT116. Kind of assay: In vitro tumor cell proliferation inhibition assay (SRB method), HCT116. The settings on record: for inhibition at 10 µM: HCT-116, test compounds 10 μM; for inhibition at 10 µM / IC50: SRB; for IC50: HCT-116, 72 hours, mean of triplicate experiments, read-out: IC50 against HCT116. The protocol: (§1) Sulforhodamine B Colorimetric Method (SRB Method) and MTT Colorimetric Method (MTT Method)
(§2) Human lung cancer cell line A549, human liver cancer cell line HepG2, human colon cancer cell line HCT116, human colon cancer cell line HT-29, human leukemia cell line K562, human cervical cancer cell line hela, and human breast cancer cell line MCF-7, all provided by the Shanghai Cell Bank, Chinese Academy of Sciences.
(§3) A549, HepG2, HCT116, HT-29, K562, hela, and MCF-7 cells were cultured respectively in 1640, DMEM, 5A, 5A, 1640, DMEM, and 1640 culture media containing 10 wt % heat-inactivated FBS (fetal bovine serum), 2 mM L-glutamine, 100 U/mL penicillin and […] streptomycin, in a cell incubator at 37° C. and 5 vol % CO2. The medium was replaced every two days. After the A549, HepG2, HCT116, HT-29, hela, and MCF-7 cells were confluent, they were digested with 0.05% (w/v) trypsin-EDTA at 37° C., passaged, and maintained in the logarithmic growth phase suitable for testing. The K562 suspension cells were passaged without digestion, and maintained in the logarithmic growth phase suitable for testing. The A549, HepG2, HCT116, HT-29, K562, hela, and MCF-7 cells in the logarithmic growth phase were inoculated to 96-well plates at 5000, 5000, 5000, 5000, 6000, 5000, 5000 per well, respectively, and cultured at 37° C. for 24 h.
(§4) Then various concentrations of test samples were added. The positive control group was doxorubicin hydrochloride (final concentration was 1 μM), the solvent control group was an equal volume of DMSO, and the blank control group was an equal volume of a culture medium, with 4 replicate wells for each concentration. After the A549, HepG2, HCT116, HT-29, hela, and MCF-7 cells were treated with the test drugs for 72 hours, the cells in each well were fixed with 50% (m/v) cold trichloroacetic acid (TCA) and stained with SRB. Then […] of Tris solution was added, and the OD value at the wavelength of 540 nm was measured using a microplate reader. For K562 cells, after 72 hours of treatment with the test drugs, […] of 5 mg/mL MTT was added, and the cells were incubated at 37° C. for 4 hours. Next, […] of a triplet solution (10% SDS, 5% isobutanol, 12 mM HCl) was added, followed by further incubation for 12 to 20 hours. The OD value at the wavelength of 570 nm was measured using a microplate reader.
(§5) The tumor cell growth inhibition rate was calculated according to the following equation: […]
(§6) in the equation, • OD540 control well is the absorbance of the control group; • OD540 dosing well is the absorbance of the test group.
(§7) IC50 values of the test drugs (calculated by GraphPad Prism 5 software) were the means of the results of triplicate experiments.
On the technique in general: In SRB staining, fixed cells bind dye roughly in proportion to their protein.

Assay [2] relates to human lung cancer cell line A549. Kind of assay: In vitro tumor cell proliferation inhibition assay (SRB method), A549. To be noted: 72 hours; for inhibition at 10 µM: test compounds 10 μM; for inhibition at 10 µM / IC50: SRB; for IC50: mean of triplicate experiments, read-out: IC50 against A549. The protocol: as §1, §2, §3, §4, §5, §6, §7
The test system of assay [3] is human liver cancer cell line HepG2. Put plainly: In vitro tumor cell proliferation inhibition assay (SRB method), HepG2. To be noted: 72 hours; for inhibition at 10 µM: test compounds 10 μM; for inhibition at 10 µM / IC50: SRB; for IC50: mean of triplicate experiments, read-out: IC50 against HepG2. The protocol: as §1, §2, §3, §4, §5, §6, §7
Assay [4] deals with human cervical cancer cell line hela. Kind of assay: In vitro tumor cell proliferation inhibition assay (SRB method), hela. To be noted: 72 hours; for IC50: SRB, mean of triplicate experiments, read-out: IC50 against hela. The protocol:
as §1, §2, §3, §4, §5, §6, §7

The test system of assay [5] is human leukemia cell line K562. Kind of assay: In vitro tumor cell proliferation inhibition assay (MTT method), K562. To be noted: 72 hours; for IC50: mean of triplicate experiments, read-out: IC50 against K562. The protocol: as §1, §2, §3, §4, §5, §6, §7
(In general: Formazan colour is commonly taken as a measure of viable cells.)

Assay [6] concerns human colon cancer cell line HT-29. Put plainly: In vitro tumor cell proliferation inhibition assay (SRB method), HT-29. To be noted: 72 hours; for IC50: SRB, mean of triplicate experiments, read-out: IC50 against HT-29. The protocol:
as §1, §2, §3, §4, §5, §6, §7

In assay [7] the test system is human breast cancer cell line MCF-7. Put plainly: In vitro tumor cell proliferation inhibition assay (SRB method), MCF-7. To be noted: for IC50: MCF7, 72 hours, SRB, mean of triplicate experiments, read-out: IC50 against MCF-7. The protocol:
as §1, §2, §3, §4, §5, §6, §7

Assay [8] relates to A549, HepG2, HCT116, HT-29, K562, hela, and MCF-7 cell lines. Put plainly: In vitro tumor cell proliferation inhibition assay, summary over all 7 types of cells. The settings on record: Homo sapiens. The method, then:
as §1, §2, §3, §4, §5, §6, §7

[9] abbreviates: 72 hours, read-out: Inhibition rate on HCT116.
[10] abbreviates: read-out: Inhibition rate on A549.
The mark [11] stands for this setting: read-out: Inhibition rate on HepG2.
[12] abbreviates: upper bound over A549, HepG2, HCT116, HT-29, K562, hela, MCF-7.

A value given as a limit tells only on which side of the number the result lay.

With `COC(=O)c1cc(O)c(O)c(O)c1CNC(=O)CCl` [Compound I-12, N-(2,3,4-trihydroxy-6-carbomethoxy-benzyl) chloroacetamide], the inhibition at 10 µM was determined as 47.6% in assay [1] (setting [9]), 40.9% in assay [2] (setting [10]) and 55.9% in assay [3] (setting [11]).
In the case of `COC(=O)c1cc(O)c(O)c(O)c1CNC(C)=O` [Compound I-10, N-(2,3,4-trihydroxy-6-carbomethoxy-benzyl) acetamide], the inhibition at 10 µM was found to be 34.8% in assay [1] (setting [9]), 38.2% in assay [2] (setting [10]) and 55.8% in assay [3] (setting [11]).
In the case of `C=CC(=O)NCc1c(O)c(Br)c(O)c(CNC(=O)C=C)c1C(=O)O` [Compound I-17], the IC50 in assay [1] came out at 2.74 µM; in assay [2], 7.77 µM; in assay [4], 3.01 µM; in assay [5] it was 18 µM; in assay [6] it was 8.6 µM; in assay [3], 3.05 µM. For the same molecule, the IC50 in assay [7] is 2.93 µM; in assay [8] (setting [12]), less than 35.5 µM. Also, the figures for the inhibition at 10 µM in assay [1] (setting [9]), in assay [2] (setting [10]) and in assay [3] (setting [11]) were 91.5%, 95.8% and 90.3%, respectively.
Regarding `COC(=O)c1cc(O)c(O)c(O)c1CNC(=O)c1ccccc1` [Compound I-14, N-(2,3,4-trihydroxy-6-carbomethoxy-benzyl) benzamide], the inhibition at 10 µM in assay [1] (setting [9]) turned out to be 34.1%; in assay [2] (setting [10]), 37.7%; in assay [3] (setting [11]) it was 1.56%.
On to `Cc1c(O)c(CNC(=O)CCl)cc(CNC(=O)CCl)c1O` [Compound I-3, N-(2,4-dihydroxy-3-methyl-5-chloroacetamidomethylbenzyl) chloroacetamide], for which the IC50 in assay [1] came out at 5.12 µM; in assay [2], 7.4 µM; in assay [4] it was 9.3 µM; in assay [5], 14.5 µM; in assay [6], 10.7 µM; in assay [3], 6.04 µM. Besides, the IC50 in assay [7] is 9.73 µM; in assay [8] (setting [12]), less than 35.5 µM. Also, the figures for the inhibition at 10 µM in assay [1] (setting [9]), in assay [2] (setting [10]) and in assay [3] (setting [11]) were 76.5%, 95.9% and 92.3%, respectively.
As for `C=CC(=O)NCc1c(C(=O)OCCC)cc(O)c(O)c1O` [Compound I-9, N-(2,3,4-trihydroxy-6-propoxycarbonyl-benzyl) acrylamide], the inhibition at 10 µM is 29.1% in assay [1] (setting [9]), 27.5% in assay [2] (setting [10]) and 51.1% in assay [3] (setting [11]).
The matching figures for `CCCOC(=O)c1cc(O)c(O)c(O)c1CNC(C)=O` [Compound I-11, N-(2,3,4-trihydroxy-6-propoxycarbonyl-benzyl) acetamide]: 38.2%, 32.5% and 55.5%.
The corresponding values for `CCCOC(=O)c1cc(O)c(O)c(O)c1CNC(=O)CCl` [Compound I-13, N-(2,3,4-trihydroxy-6-propoxycarbonyl-benzyl) chloroacetamide] are 37.8%, 29.6% and 55%.
The corresponding values for `C=CC(=O)NCc1c(C(=O)OC)cc(O)c(O)c1O` [Compound I-8, N-(2,3,4-trihydroxy-6-carbomethoxy-benzyl) acrylamide] are 30.4%, 28.5% and 54.8%.
As for `C=CC(=O)NCc1cc(C(C)=O)c(O)c(CNC(=O)C=C)c1O` [Compound I-16], the inhibition at 10 µM stood at 33.9% in assay [1] (setting [9]), 4.84% in assay [2] (setting [10]) and 13% in assay [3] (setting [11]).
Take `COc1cccc2c1C(=O)c1c(O)c3c(c(O)c1C2=O)C[C@@](O)(C(=O)CO)C[C@@H]3O[C@H]1C[C@H](N)[C@H](O)[C@H](C)O1` [doxorubicin, reference compound]: the inhibition at 1 µM in assay [1] (HCT-116, doxorubicin 1 μM, 72 hours, read-out: Inhibition rate on HCT116) stood at 60.9%; in assay [2] (doxorubicin 1 μM, read-out: Inhibition rate on A549) it was 88.8%; in assay [4] (doxorubicin 1 μM, read-out: Inhibition rate on hela), 44.3%; in assay [5] (doxorubicin 1 μM, read-out: Inhibition rate on K562), 40.8%; in assay [6] (doxorubicin 1 μM, read-out: Inhibition rate on HT-29), 95.3%; in assay [3] (doxorubicin 1 μM, read-out: Inhibition rate on HepG2) it was 78.1%. Besides, the inhibition at 1 µM in assay [7] (MCF7, doxorubicin 1 μM, 72 hours, read-out: Inhibition rate on MCF-7) is 69.1%.
With `C=CC(=O)NCc1cc(C(=O)OC)cc(O)c1O` [Compound I-18], the inhibition at 10 µM in assay [1] (setting [9]) was 22.5%; in assay [2] (setting [10]), 10.5%; in assay [3] (setting [11]), 73%.
Regarding `CC(=O)NCc1c(O)c(O)c(O)c(CNC(C)=O)c1C(=O)O` [Compound I-2, N-(2,3,4-trihydroxy-5-acetamidomethyl-6-carboxybenzyl) acetamide], the half-inhibitory concentration (IC50) is greater than 50 µM in assay [1]; 4.84 µM in assay [2]; greater than 50 µM in assay [4]; greater than 50 µM in assay [5]; greater than 50 µM in assay [6]; greater than 50 µM in assay [3]. The IC50 in assay [7] was greater than 50 µM. Moreover, the inhibition at 10 µM is 82% in assay [1] (setting [9]), 69.9% in assay [2] (setting [10]) and 18.4% in assay [3] (setting [11]).
`C=CC(=O)NCc1cc(CNC(=O)C=C)c(O)c(C(C)=O)c1O` [Compound I-15]: the values for the inhibition at 10 µM in assay [1] (setting [9]), in assay [2] (setting [10]) and in assay [3] (setting [11]) were 27.7%, 7.05% and 33.5%, respectively.
For `Cc1c(C)c(CNC(=O)CCl)c(C)c(CNC(=O)CCl)c1O` [Compound I-5, N-(2,3,6-trimethyl-4-hydroxy-5-chloroacetamidomethylbenzyl) chloroacetamide], the IC50 amounted to 5.32 µM in assay [1]; 6.32 µM in assay [2]; 5.64 µM in assay [4]; 6.93 µM in assay [5]; 9.39 µM in assay [6]; 4.06 µM in assay [3]. For the same molecule, the IC50 in assay [7] is 3.74 µM; in assay [8] (setting [12]) it was less than 35.5 µM; in assay [8] (upper bound over all 7 types of cells, compound I-5), less than 9.4 µM. Moreover, the figures for the inhibition at 10 µM in assay [1] (setting [9]), in assay [2] (setting [10]) and in assay [3] (setting [11]) were 97.3%, 89.5% and 95.3%, respectively.

One may read the inhibition as the relative decrease from the control value, in per cent. In general, IC50 refers to the concentration that gives 50% inhibition.
